According to patent US11667652B2, “MCL1 inhibitors” (Gilead Sciences, Inc., priority 2019, dated 2023):
Read-outs that look alike come from different tables or passages of the source.

What was measured:
MCL1/Bim = MCL1/Bim (Homo sapiens (Human), UniProt Q07820); assay: MCL1/Bim Binding AlphaLISA Assay; conditions: recombinant human 6xHis-MCL1 (171-327), biotinylated Bim peptide (51-76)
Description: MCL1/Bim Binding AlphaLISA Assay.
Inhibition of the MCL1 and Bim interaction was measured in the following AlphaLISA assay.
Recombinant human MCL1 protein (C-terminal 6×His Tagged MCL1 containing residues 171-327) was generated at Gilead Sciences, Inc. (Foster City, Calif.). A biotinylated peptide derived from human Bim (residues 51-76) was purchased from CPC Scientific (Sunnyvale, Calif.). (CPC 834113). AlphaLISA anti-6His- acceptor beads (AL128R), AlphaScreen Streptavidin donor beads (6760002B), and Proxiplate-384 Plus (6008289) were purchased from PerkinElmer.
The AlphaLISA assay was performed in a 384-well Proxiplate in a total volume of […]. The reaction mixture contained 0.0625 nM 6×His-MCL1 (171-327), 0.0625 nM biotinylated-Bim peptide, 10 μg/mL AlphaLISA anti-6×His-AlphaLISA acceptor beads, 40 μg/mL AlphaScreen streptavidin donor beads, and serially diluted test compounds in the binding buffer (20 mM Hepes, pH 7.5 (Teknova H1035); 150 mM NaCl (Promega V4221); 0.002% Brij 35 (Thermo Scientific 20150); 1 mM Dithiothreitol (DTT) Solution (Affymetrix 70726); 0.01% BSA (BioLabs B9000S)). 1,000× test compounds were pre-spotted onto 384-well Proxiplate (Labcyte Echo) by Echo 555 Liquid Handler (Labcyte Inc., San Jose, Calif.) followed by incubation of 5 μL MCL1(171-327) for 1 hour. Then 5 μL Bim (51-76) was added and incubated for 2 hours. Five μL AlphaLISA anti-6His-AlphaLISA acceptor beads were then added for 1 hour followed by addition of 5 μL AlphaScreen streptavidin donor beads for 1 hour. The reaction plates were then read on an Envision multimode reader (PerkinElmer) using AlphaScreen settings. Percent inhibition was calculated as shown below: % Inhibition=100%*(Well−Neg)/(Pos−Neg) Neg: negative control, DMSO Pos: positive control, no MCL1 protein, no biotinylated-Bim peptide

SKBR3 cells = assay: SKBR3 Cell Viability Assay; assay type: cell-based; conditions: CellTiter Glo, read-out: MCL1 CV SKBR3 EC50
Description: SKBR3 Cell Viability Assay Materials
SKBR3 Cells (ATCC HTB-30) were obtained from ATCC (Manassas, Va.) and cultured in McCoy 5A's medium (ATCC 30-2007)+10% fetal bovine serum (SH30071.03, HyClone, Pittsburgh, Pa.) plus 1× Penicillin-Streptomycin L-glutamine (Corning 30-009-CI, Corning, N.Y.).
The cell viability assay was conducted in a 384-well tissue culture plate (Grenier 781086, Monroe, N.C.) in a total volume of 70 μL. Test compounds were prepared in 1,000×, serially diluted, and pre-spotted into 384-well tissue culture plate by Echo 555 Liquid Handler (Labcyte Inc., San Jose, Calif.). Seventy μL of 6,000 SKBR3 cells were dispensed into each well of the plate and incubated at 37° C. with 5% CO2 for 72 hours. At the end of incubation, 2× CellTiter Glo (CTG) reagents (1 part buffer with 2 parts substrate) (Promega, Madison, Wis.) were prepared, and the plate and the reagent were equilibrated to room temperature for 30 minutes. CTG reagent was added to each plate by Biomek FX at 20 μL/well with 5 times pipetting and mixing to induce cell lysis. Luminescence was read by Envision multimode reader (PerkinElmer). Percent inhibition was calculated as followed: % Inhibition=100%*(Well−Neg)/(Pos−Neg) Neg, negative control, DMSO Pos, positive control, 10 μM Puromycin

[1] = Homo sapiens, SK-BR-3, 72 hours

MCL1/Bim, sequence (Q07820 171-327): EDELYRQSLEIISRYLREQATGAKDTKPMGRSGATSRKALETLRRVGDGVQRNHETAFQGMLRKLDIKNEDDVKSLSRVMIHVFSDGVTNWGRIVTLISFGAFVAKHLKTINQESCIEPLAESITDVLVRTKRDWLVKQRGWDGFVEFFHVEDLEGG

Compound | IC50 (MCL1/Bim) [nM] | EC50 (SKBR3 cells; [1]) [nM] | EC50 (SKBR3 cells; 72 hours) [nM]
COc1ccc2c(N[S@@]3(=O)=NC(=O)c4ccc5c(c4)N(C[C@@H]4CC[C@H]4[C@@H](OC)/C=C/C[C@H](C)C3)C[C@@]3(CCCc4cc(Cl)ccc43)CO5)ncnc2c1 [Example 21] | 0.156 | 882 | –
Cn1nccc1CCC(=O)NS1(=O)=NC(=O)c2ccc3c(c2)N(C[C@@H]2CC[C@H]2[C@@H](OCCN2CCOCC2)/C=C/CCC1)C[C@@]1(CCCc2cc(Cl)ccc21)CO3 (some centres unmarked) [Example 49] | 0.194 | – | 525
COc1nn(C)cc1C(=O)N[S@@]1(=O)=NC(=O)c2ccc3c(c2)N(C[C@@H]2CC[C@H]2[C@@](O)(CC(=O)N2CCOCC2)/C=C/C[C@H](C)C1)C[C@@]1(CCCc2cc(Cl)ccc21)CO3 [Example 99] | 0.034 | – | 14.2
COc1nn(C)cc1C(=O)N[S@@]1(=O)=NC(=O)c2ccc3c(c2)N(C[C@@H]2CC[C@H]2[C@@H](OC)/C=C/[C@@H](OC)[C@H](C)C1)C[C@@]1(CCCc2cc(Cl)ccc21)CO3 [Example 93] | 0.457 | 556 | –
C[C@H]1C/C=C/[C@H](OC(=O)c2cnn(C)c2)[C@@H]2CC[C@H]2CN2C[C@@]3(CCCc4cc(Cl)ccc43)COc3ccc(cc32)C(=O)N=[S@](=O)(NC(=O)c2cnn(C)c2)C1 [Example 51] | 0.222 | 433 | –
COc1nn(C)cc1C(=O)N[S@@]1(=O)=NC(=O)c2ccc3c(c2)N(C[C@@H]2CC[C@H]2[C@@H](OCCN2CC(C(F)F)C2)/C=C/C[C@H](C)C1)C[C@@]1(CCCc2cc(Cl)ccc21)CO3 [Example 62] | 0.069 | 17.5 | –
COc1nn(C)cc1C(=O)N[S@@]1(=O)=NC(=O)c2ccc3c(c2)N(C[C@@H]2CC[C@H]2[C@](O)(CC(=O)N2CCN(C)CC2)/C=C/C[C@H](C)C1)C[C@@]1(CCCc2cc(Cl)ccc21)CO3 [Example 101] | 0.026 | – | 27
COc1nn(C)cc1C(=O)N[S@@]1(=O)=NC(=O)c2ccc3c(c2)N(C[C@@H]2CC[C@H]2[C@@H](OC)[C@H](OC)/C=C\[C@H](C)C1)C[C@@]1(CCCc2cc(Cl)ccc21)CO3 [Example 133] | 0.643 | 1370 | –
COc1nn(C)cc1C(=O)N[S@@]1(=O)=NC(=O)c2ccc3c(c2)N(C[C@@H]2CC[C@H]2[C@@](CN2CC(OC)C2)(OC)/C=C/C[C@H](C)C1)C[C@@]1(CCCc2cc(Cl)ccc21)CO3 [Example 117] | 0.067 | 23.9 | –
COc1nn(C)cc1C(=O)N[S@@]1(=O)=NC(=O)c2ccc3c(c2)N(C[C@@H]2CC[C@H]2[C@@H](OC)/C=C/[C@H](OCc2cn(C)cn2)[C@H](C)C1)C[C@@]1(CCCc2cc(Cl)ccc21)CO3 [Example 85] | 0.085 | 164 | –
COc1nnc(NS2(=O)=NC(=O)c3ccc4c(c3)N(C[C@@H]3CC[C@H]3[C@@H](OC)/C=C/C[C@H](C)C2)C[C@@]2(CCCc3cc(Cl)ccc32)CO4)c2nn(C)cc12 (some centres unmarked) [Example 17] | 2.39 | – | 4550
COc1nn(C)cc1C(=O)N[S@@]1(=O)=NC(=O)c2ccc3c(c2)N(C[C@@H]2CC[C@H]2[C@@](O)(CC(=O)N2CCN(C4COC4)CC2)/C=C/C[C@H](C)C1)C[C@@]1(CCCc2cc(Cl)ccc21)CO3 [Example 104] | 0.034 | – | 54
CO[C@H]1/C=C/C[C@H](C)C[S@@](=O)(NC(=O)c2cn(C)c(=O)n2C)=NC(=O)c2ccc3c(c2)N(C[C@@H]2CC[C@H]21)C[C@@]1(CCCc2cc(Cl)ccc21)CO3 [Example 208] | 0.13 | 140 | –
CO[C@H]1/C=C/C[C@H](C)[C@@H](C)[S@@](=O)(NC(=O)c2cc3n(c2)CCOC3)=NC(=O)c2ccc3c(c2)N(C[C@@H]2CC[C@H]21)C[C@]1(CO3)C[C@@H]2C[C@@H]2c2cc(Cl)ccc21 [Example 172] | 0.605 | 160 | –
CO[C@H]1/C=C/C[C@H](C)C[S@@](=O)(Nc2ncnc3nn(C)cc23)=NC(=O)c2ccc3c(c2)N(C[C@@H]2CC[C@H]21)C[C@@]1(CCCc2cc(Cl)ccc21)CO3 [Example 8] | 0.061 | 26.5 | –
COc1nn(C)cc1C(=O)N[S@@]1(=O)=NC(=O)c2ccc3c(c2)N(C[C@@H]2CC[C@H]2[C@@](CN2CCN4CCOC[C@@H]4C2)(OC)/C=C/C[C@H](C)C1)C[C@@]1(CCCc2cc(Cl)ccc21)CO3 [Example 112] | 0.086 | 10.4 | –
COc1nn(C)cc1C(=O)N[S@@]1(=O)=NC(=O)c2ccc3c(c2)N(C[C@@H]2CC[C@H]2[C@@H](OC)C[C@H]2CC(O)O[C@@H]2[C@H](C)C1)C[C@@]1(CCCc2cc(Cl)ccc21)CO3 (some centres unmarked) [Example 139] | 0.071 | 198 | –
CO[C@H]1/C=C/C[C@H](C)C[S@@](=O)(NC(=O)c2cnn(C)c2)=NC(=O)c2ccc3c(c2)N(C[C@@H]2CC[C@H]21)C[C@]1(CO3)C[C@@H]2C[C@@H]2c2cc(Cl)ccc21 [Example 167] | 0.101 | 46.3 | –
COc1nn(C)cc1C(=O)N[S@@]1(=O)=NC(=O)c2ccc3c(c2)N(C[C@@H]2CC[C@H]2[C@@H](OC)C[C@@H]2[C@H](OC[C@@H]2C)[C@H](C)C1)C[C@@]1(CCCc2ccccc21)CO3 [Example 148] | 0.426 | – | 1720
CCCO[C@H]1/C=C/C[C@H](C)C[S@@](=O)(NC(=O)c2cn(C)nc2OC)=NC(=O)c2ccc3c(c2)N(C[C@@H]2CC[C@H]21)C[C@@]1(CCCc2cc(Cl)ccc21)CO3 (mixture of isomers) [Example 137] | 1.77 | – | 561
CO[C@H]1/C=C/CCC[S@@](=O)(NC(=O)c2cc3n(c2)CCOC3)=NC(=O)c2ccc3c(c2)N(C[C@@H]2CC[C@H]21)C[C@]1(CO3)SCCc2cc(Cl)ccc21 [Example 184] | 0.26 | 262 | –
C[C@H]1C/C=C/[C@H](O)[C@@H]2CC[C@H]2CN2C[C@@]3(CCCc4cc(Cl)ccc43)COc3ccc(cc32)C(=O)N=[S@](=O)(Nc2nc(N3CCOCC3)nc3nn(C)cc23)C1 [Example 33] | 0.019 | 30.1 | –
CO[C@H]1/C=C/C[C@H](C)C[S@@](=O)(Nc2cnccn2)=NC(=O)c2ccc3c(c2)N(C[C@@H]2CC[C@H]21)C[C@@]1(CCCc2cc(Cl)ccc21)CO3 [Example 1] | 0.221 | 1390 | –
COc1nn(C)cc1C(=O)N[S@@]1(=O)=NC(=O)c2ccc3c(c2)N(C[C@@H]2CC[C@H]2/C=C/CC[C@H](C)C1)C[C@@]1(CCCc2cc(Cl)ccc21)CO3 (mixture of isomers) [Example 129] | 0.142 | – | 1210
COc1nn(C)cc1C(=O)N[S@@]1(=O)=NC(=O)c2ccc3c(c2)N(C[C@@H]2CC[C@H]2[C@@H](OC)/C=C/[C@H](OCCN2CC(OC)C2)[C@H](C)C1)C[C@@]1(CCCc2cc(Cl)ccc21)CO3 [Example 81] | 0.011 | 6.3 | –
COc1nn(C)cc1C(=O)N[S@@]1(=O)=NC(=O)c2ccc3c(c2)N(C[C@@H]2CC[C@H]2[C@@H](OC)/C=C/C(O)(CC(=O)N(C)C)[C@H](C)C1)C[C@@]1(CCCc2cc(Cl)ccc21)CO3 (mixture of isomers) [Example 124] | 0.033 | 10.1 | –
COc1nn(C)cc1C(=O)N[S@@]1(=O)=NC(=O)c2ccc3c(c2)N(C[C@@H]2CC[C@H]2[C@@](CN2CCN(C4COC4)CC2)(OC)/C=C/C[C@H](C)C1)C[C@@]1(CCCc2cc(Cl)ccc21)CO3 [Example 116] | 0.102 | 13.4 | –
COc1nn(C)cc1C(=O)N[S@@]1(=O)=NC(=O)c2ccc3c(c2)N(C[C@@H]2CC[C@H]2[C@H]2OCC[C@@H]2C[C@H](OC)[C@H](C)C1)C[C@@]1(CCCc2cc(Cl)ccc21)CO3 (mixture of isomers) [Example 155] | 0.072 | 88.9 | –
